From PubChem BioAssay AID624092 (The Scripps Research Institute Molecular Screening Center, 2012) come the findings set out here.

The test concerns the target Beta-lactamase TEM (Escherichia coli) (UniProt P62593). Description: TEM-1 beta-lactamase inhibitor potency, late-stage follow-up, selectivity assay, biochemical, absorbance, probe candidates and analogs (AID 624092). To be noted: purified TEM-1, nitrocefin hydrolysis, epi-absorbance.

Each structure is given as a SMILES string. The source made the active and inactive calls.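 The calls were made as follows: active = compounds blocking the TEM-1 enzyme with a half-maximal inhibitory concentration of 10 micromolar or lower; inactive = the rest.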

Broadly, the IC50 is the concentration at which inhibition is half-maximal.

Chain of Beta-lactamase TEM (Escherichia coli) (P62593 whole entry, looked up): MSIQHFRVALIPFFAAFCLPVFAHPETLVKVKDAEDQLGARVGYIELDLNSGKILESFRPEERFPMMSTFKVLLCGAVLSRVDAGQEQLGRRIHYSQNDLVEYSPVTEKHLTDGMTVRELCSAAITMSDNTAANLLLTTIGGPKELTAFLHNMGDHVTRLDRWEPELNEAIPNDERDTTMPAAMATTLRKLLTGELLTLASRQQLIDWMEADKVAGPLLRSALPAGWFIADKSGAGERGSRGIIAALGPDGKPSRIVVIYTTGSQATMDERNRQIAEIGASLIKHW

With `CN1CCN(NC(=O)CN2C(=O)/C(=C/c3c(Cl)cccc3Cl)SC2=S)CC1`, the IC50 is > 60 µM (inactive).

Consider `CN1CCN(NC(=O)CN2C(=O)/C(=C/c3c(Cl)ccc(Cl)c3Cl)SC2=S)CC1`, for which the IC50 was > 60 µM (inactive).
